Where “and” joins values, the source holds several entries; their conditions need not be identical. Identical values can stand only once. Like-named read-outs stand apart in the source and are kept apart here.
How the values were obtained:
[1] = target: T1, MDM2 (Homo sapiens, UniProt Q00987); experiment: Inhibition test of MDM2-P53 (GST-MDM2, Biotin-P53, Anti-GST-Tb, SA-XL665); assay type: binding
T1 construct: made in house
Procedure, shortened: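 Compounds, serially diluted 5-fold (twelve concentrations), were shaken for 90 min at 25° C with a mix of GST-MDM2 (4 nM final), Biotin-P53, anti-GST-Tb and SA-XL665. Buffer: 1×PBS, 0.1% BSA, 5 mM DTT, 1 mM AEBSF; signal read on a microplate reader.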

[2] = tested on: human osteosarcoma cell line SJSA-1; experiment: Inhibition of proliferation of human osteosarcoma cell line SJSA-1 (DAPI staining, In Cell Analyzer); details: Homo sapiens, SJSA-1, 72 h, read-out: IC50 (nM), inhibitory activity on proliferation of human osteosarcoma cell line SJSA-1, SJSA-1, incubated 72 h
Protocol: 2.2 Experiment Preparation:
2.2.1 Preparation of a culture medium for human osteosarcoma cell line SJSA-1: RPMI1640+10% FBS+1% penicillin/streptomycin
2.2.2 Preparation of a test compound solution:
a. the test compound solution with a certain concentration was taken, and diluted with the culture medium to obtain a compound solution with a final concentration of 20 μM;
b. 200 μL of a culture medium containing 0.2% DMSO (dimethyl sulfoxide) was added into H2-H10 of a 96-well plate; 300 μl of the above solution was added into H1; and
c. 100 μL was taken out from well H1, added into H2, and mixed well; then 100 μl of the resultant solution was taken and added into H3, and dilution was carried out in sequence until H9 to obtain the 3-fold serial dilution of the test compound.
2.3 Experimental Process:
2.3.1 SJSA-1 cells were inoculated into a 96-well cell plate with black transparent bottom at 4000 cells/100 μl/well, and cultured overnight at 37° C.;
2.3.3 Fixation: the cell plate was taken out, the culture medium was removed, and 50 μL of 4% paraformaldehyde solution was added to each well to fix for 10 min;
2.3.4 50 μl of 0.1 M glycine was added to neutralize for 10 min;
2.3.5 Washing was performed with 1×PBS (phosphate buffer solution pH7.2) twice;
2.3.6 Permeabilization: 50 μL of 0.2% TritonX-100 (Triton) was added per well, and permeabilization was carried out at room temperature for 10 min;
2.3.7 Washing was performed with 1×PBS (phosphate buffer solution pH7.2) twice;
2.3.9 Washing was performed with 1×PBS (phosphate buffer solution pH7.2) for three times; and
2.3.10 Scanning and analysis were performed by In cell analyzer.
The inhibition rate of each compound at each concentration point was calculated according to the following formula, and curve fitting was performed by GraphPad Prism 6.0 software to obtain the IC50 value.

[3] = Pharmacokinetics in ICR mice after intravenous and intragastric administration; assay type: in vivo; details: for MRT last: read-out: MRT(0-t); for MRT inf: read-out: MRT(0-∞); for Tmax: read-out: Tmax; for Vd: read-out: Vz
Protocol: Experimental Example 3 Determination of the Pharmacokinetics of the Mdm2 Inhibitors of the Present Invention in Mice
ICR mice were used as the test animals, and the concentrations of the drugs in plasma of mice at different time points after intravenous administration and intragastric administration of the representative compounds were measured by a LC/MS/MS method, so as to study the pharmacokinetic behavior of the compounds of the present invention in mice and evaluate the pharmacokinetic characteristics thereof.
Some compounds prepared in Examples 1-180 of the present invention.
The control drug HDM201 was prepared by the method disclosed in patent No. CN104203952A.
Healthy adult ICR mice, male, 6-9 weeks old, weighing 20-30 g, purchased from Shanghai Xipuer-Bikai Laboratory Animal Co., Ltd., Animal Production License No.: SCXK (HU) 2013-0016
3.2.3 Preparation of Test Drugs
Intragastric or intravenous administration: an appropriate amount of sample was weighed, dissolved in 5% DMSO+40% PEG400+55% (10% HP-β-CD in Saline) to prepare a 0.5 mg/ml solution for intragastric or intravenous administration.
3.2.4 Administration of Test Drugs
Intravenous administration: for each test compound, 3 male ICR mice were administered intravenously at a dose of 2 mg/kg and an administration volume of […] after fasting overnight.
Intragastric administration: for each test compound, 3 male ICR mice were administered intragastrically at a dose of 5 mg/kg and an administration volume of […] after fasting overnight.
3.3 Experimental Operation
The collected plasma was stored at −80° C. before analysis. The plasma sample was analyzed by LC-MS/MS, and the sample was pretreated by protein precipitation method. The linear range of sample analysis was 1 to 2000 ng/ml. The lowest quantification limit was 1 ng/mL. WinNonlin (Pharsight, USA) was used to calculate the following pharmacokinetic parameters: area under the curve AUC(0-t), area under the curve AUC(0-∞), half-life t1/2, retention time MRT(0-∞), blood drug concentration Cmax, time taken to reach the peak blood drug concentration Tmax, bioavailability F, apparent volume of distribution Vz, and clearance rate CL.

[4] = IV 2 mg/kg, ICR mice, individual animal, 2 mg/kg
[5] = PO 5 mg/kg, ICR mice, individual animal, 5 mg/kg
[6] = male, ICR, mouse, plasma, iv, 2 mg/kg, IV 2 mg/kg, ICR mice, Mean
[7] = male, ICR, mouse, plasma, iv, 2 mg/kg, IV 2 mg/kg, ICR mice, individual animal
[8] = male, ICR, mouse, plasma, po, 5 mg/kg, PO 5 mg/kg, ICR mice, Mean
[9] = male, ICR, mouse, plasma, po, 5 mg/kg, PO 5 mg/kg, ICR mice, individual animal

T1 sequence (Q00987 whole entry): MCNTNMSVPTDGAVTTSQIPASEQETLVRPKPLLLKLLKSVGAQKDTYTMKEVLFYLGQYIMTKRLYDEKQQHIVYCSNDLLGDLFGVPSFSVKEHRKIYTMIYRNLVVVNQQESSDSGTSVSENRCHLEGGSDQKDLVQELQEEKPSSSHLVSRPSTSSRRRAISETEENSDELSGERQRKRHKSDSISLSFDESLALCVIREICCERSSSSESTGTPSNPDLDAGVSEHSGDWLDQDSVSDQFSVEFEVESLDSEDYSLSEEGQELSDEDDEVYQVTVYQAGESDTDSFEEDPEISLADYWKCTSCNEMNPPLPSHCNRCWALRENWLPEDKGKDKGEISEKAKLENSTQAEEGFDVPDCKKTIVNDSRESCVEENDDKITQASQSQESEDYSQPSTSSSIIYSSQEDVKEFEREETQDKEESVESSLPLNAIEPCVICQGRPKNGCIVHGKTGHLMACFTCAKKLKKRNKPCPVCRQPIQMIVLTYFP

## COc1ncc(-c2nc3c(n2C(C)C)[C@@]2(C(=O)Nc4cc(Cl)ccc42)N(c2cccc(Cl)c2)C3=O)c(OC)n1 [Example S-1, (S)-6-chloro-5′-(3-chlorophenyl)-2′-(2,4-dimethoxypyrimidin-5-yl)-3′-isopropyl-3′H-spiro[dihydroindole-3,4′-pyrrolo[3,4-d]imidazole]-2,6′(5′H)-dione]
[1]
  IC50: 2.21 nM
[2]
  IC50: 39.6 nM
[3]; [4]
  AUC(0-t): 843.53 ng·h/mL and 532.69 ng·h/mL
  AUC(0-∞): 855.63 ng·h/mL and 548.82 ng·h/mL
  CL: 38.9578 mL/min/kg and 60.7363 mL/min/kg
  Cmax: 336.17 ng/mL and 307.80 ng/mL
  MRT(0-t): 1.34 h
  MRT(0-∞): 1.43 h and 1.52 h
  Vz: 3.30882 L/kg and 6.38069 L/kg
  t1/2: 0.98 h and 1.21 h
[3]; PO 5 mg/kg vs IV 2 mg/kg, ICR mice
  F*: 76.30%
[3]; [5]
  AUC(0-t): 1822.90 ng·h/mL and 1944.41 ng·h/mL and 241.17 ng·h/mL
  AUC(0-∞): 1834.25 ng·h/mL and 2088.41 ng·h/mL and 330.15 ng·h/mL
  Cmax: 629.23 ng/mL and 471.21 ng/mL and 92.81 ng/mL
  MRT(0-t): 2.60 h and 1.79 h
  MRT(0-∞): 3.17 h and 3.13 h
  t1/2: 1.98 h and 1.92 h
[3]; [6]
  AUC(0-inf): 714 ng·h/mL
  clearance: 48.3 mL/min/kg
  MRT last: 1.33 h
  MRT inf: 1.45 h
  Tmax: 0.083 h
  Vd: 4.54 L/kg
[3]; male, ICR, mouse, plasma, iv, 2 mg/kg, IV 2 mg/kg, ICR mice, Mean, read-out: AUC(0-t)
  AUC(0-t): 700 ng·h/mL
[3]; male, ICR, mouse, plasma, iv, 2 mg/kg, IV 2 mg/kg, ICR mice, Mean, read-out: Cmax
  Cmax: 325 ng/mL
[3]; male, ICR, mouse, plasma, iv, 2 mg/kg, IV 2 mg/kg, ICR mice, Mean, read-out: t1/2 (converted)
  half-life: 1.07 h
[3]; [7]
  AUC(0-inf): 737 ng·h/mL
  clearance: 45.2 mL/min/kg
  MRT last: 1.31 h
  MRT inf: 1.41 h
  Tmax: 0.08 h
  Vd: 3.92 L/kg
[3]; male, ICR, mouse, plasma, iv, 2 mg/kg, IV 2 mg/kg, ICR mice, individual animal, read-out: AUC(0-t)
  AUC(0-t): 725 ng·h/mL
[3]; male, ICR, mouse, plasma, iv, 2 mg/kg, IV 2 mg/kg, ICR mice, individual animal, read-out: Cmax
  Cmax: 330 ng/mL
[3]; male, ICR, mouse, plasma, iv, 2 mg/kg, IV 2 mg/kg, ICR mice, individual animal, read-out: t1/2 (converted)
  half-life: 1 h
[3]; [8]
  AUC(0-inf): 1420 ng·h/mL
  MRT last: 2.11 h
  MRT inf: 2.76 h
  Tmax: 1 h
[3]; male, ICR, mouse, plasma, po, 5 mg/kg, PO 5 mg/kg, ICR mice, Mean, read-out: AUC(0-t)
  AUC(0-t): 1340 ng·h/mL
[3]; male, ICR, mouse, plasma, po, 5 mg/kg, PO 5 mg/kg, ICR mice, Mean, read-out: Cmax
  Cmax: 398 ng/mL
[3]; male, ICR, mouse, plasma, po, 5 mg/kg, PO 5 mg/kg, ICR mice, Mean, read-out: t1/2 (converted)
  half-life: 1.64 h
[3]; [9]
  MRT last: 1.94 h
  MRT inf: 1.99 h
  Tmax: 1 h
[3]; male, ICR, mouse, plasma, po, 5 mg/kg, PO 5 mg/kg, ICR mice, individual animal, read-out: t1/2 (converted)
  half-life: 1.03 h
[3]; male, ICR, mouse, plasma, po, 5 mg/kg, oral intragastric administration 5 mg/kg, read-out: AUC0-t
  AUC(0-t): 1340 ng·h/mL
[3]; male, ICR, mouse, plasma, po, 5 mg/kg, oral intragastric administration 5 mg/kg, read-out: half-life (converted)
  half-life: 1.64 h

Reference: US11339171B2, “MDM2 inhibitors” (Gan & Lee Pharmaceuticals, priority 2017, dated 2022)
